Data set [1] addresses JAK2 (Homo sapiens, UniProt O60674). Put plainly: In vitro cell assay, JAK2 (STAT phosphorylation ELISA). Also on record: endogenous in cells; host or cells: UT-7/EPO (inferred). It is filed as cell-based. The conditions noted are these: read-out: IC50, Cell Biology JAK2. The method, then:
UT-7/EPO cell is an erythroleukemic cell line which expresses an EPO receptor, and is frequently used in many previous studies as a model to assess EPO-induced STAT5 phosphorylation mediated by JAK1 and JAK2 activity. Accordingly, in order to evaluate the activity of JAK1 and JAK2, UT-7/EPO cells were prepared.
The test material was dissolved in DMSO, prepared at 10 mM, divided by 20 μL each, and stored at −20° C.
• EPO: 2000 U/0.5 mL of stock was divided by 50 μL each and stored under refrigeration. • IL-2: 200 μg/ml of stock was prepared, divided by 5 μL each, and stored, and then treated at 2 ng/ml. (IL-2 1 μg/ml=13000 U/ml) • IFN-alphaB2: […] of stock was diluted and used, and then treated to reach 30000 U/ml.
• UT-7/EPO cell assay: MEM-alpha (Gibco, cat #12561-056) was prepared to contain 5% FBS and 1% P/S before use. • NK-92 cell assay: A preparation was made to contain HBSS, 1% FBS and 1% P/S before use. • U2OS cell assay: A preparation was made to contain HBSS, 1% FBS and 1% P/S before use.
The cultured cells were centrifuged (1,000 rpm, 5 minutes) and washed with PBS. The size of cell lines and appropriate reaction concentration thereof were set and the cell lines were seeded in a 96-well plate at 1×10^5 to 10^6 cells/well (50 μL/well). […]

Data set [2] in a line: Photostability evaluation. It is filed as physicochemical. The text has this: Samples were packaged in LPDE bag, and stored under visible (1.2M Lux-h), UV (200 W-h/m2) and UV+visible conditions, respectively, and then evaluated.
Data set [3] concerns DNCB-induced animal model (NC/Nga mice). The data set is described as follows: DNCB-induced atopic dermatitis model (PO). It is filed as in vivo. As to conditions: twice a day for 28 days, FIGS. 17 to 19. The method, then:
A DNCB-induced animal model was prepared in substantially the same manner as the DNCB model (topical) in Experimental Example 6, except that the phosphate compound was orally administered, and the phosphate compound obtained according to Example 3 was administered. The phosphate compound was orally administered a total of 56 times twice a day for 28 days, and an administration interval was eight hours. The dosage (10 mL/kg) was calculated and determined based on the body weight measured on the day of administration, and intragastrically administered through the mouth of mice using a 1 ml syringe and a feeding needle. The control group was dosed with 0.5% methylcellulose (0.5% MC).

The structures appear in SMILES notation.

Sequence of JAK2 (O60674 whole entry, species assumed): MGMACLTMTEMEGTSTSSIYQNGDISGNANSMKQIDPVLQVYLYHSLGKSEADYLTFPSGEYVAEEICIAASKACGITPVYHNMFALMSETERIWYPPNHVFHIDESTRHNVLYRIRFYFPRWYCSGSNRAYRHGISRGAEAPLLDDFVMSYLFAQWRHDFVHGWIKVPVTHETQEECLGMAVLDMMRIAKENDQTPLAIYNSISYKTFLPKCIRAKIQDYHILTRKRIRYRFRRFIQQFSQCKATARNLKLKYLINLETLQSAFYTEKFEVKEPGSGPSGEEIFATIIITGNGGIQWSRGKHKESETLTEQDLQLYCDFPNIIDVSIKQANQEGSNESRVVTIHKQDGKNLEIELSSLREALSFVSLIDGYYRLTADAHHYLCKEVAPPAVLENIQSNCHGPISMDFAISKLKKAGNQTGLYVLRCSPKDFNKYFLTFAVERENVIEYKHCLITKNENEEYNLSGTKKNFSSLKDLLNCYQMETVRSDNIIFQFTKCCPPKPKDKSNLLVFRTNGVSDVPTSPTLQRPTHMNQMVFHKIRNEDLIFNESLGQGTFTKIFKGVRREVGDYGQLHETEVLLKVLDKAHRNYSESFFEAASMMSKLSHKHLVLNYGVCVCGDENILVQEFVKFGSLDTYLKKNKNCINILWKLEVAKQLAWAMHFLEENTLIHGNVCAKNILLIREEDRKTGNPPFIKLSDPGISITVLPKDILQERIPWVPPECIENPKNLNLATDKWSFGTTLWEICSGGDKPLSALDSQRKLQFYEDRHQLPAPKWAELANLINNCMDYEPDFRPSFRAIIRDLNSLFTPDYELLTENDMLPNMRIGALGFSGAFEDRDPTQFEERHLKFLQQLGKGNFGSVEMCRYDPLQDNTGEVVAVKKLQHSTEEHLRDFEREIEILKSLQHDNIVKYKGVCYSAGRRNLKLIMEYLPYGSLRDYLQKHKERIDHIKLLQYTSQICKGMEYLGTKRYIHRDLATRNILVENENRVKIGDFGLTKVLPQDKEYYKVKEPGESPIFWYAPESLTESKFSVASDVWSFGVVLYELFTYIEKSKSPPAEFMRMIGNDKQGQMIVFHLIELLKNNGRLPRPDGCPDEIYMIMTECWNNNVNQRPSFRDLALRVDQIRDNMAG

One may read the IC50 as the midpoint of a concentration-inhibition curve. `C[C@@H]1CN(C(=O)CC#N)CC=C1c1cc(NC(=O)C2CC2)nc2[nH]ccc12` [Compound 1, (S)—N-(4-(1-(2-cyanoacetyl)-3-methyl-1,2,3,6-tetrahydropyridin-4-yl)-1H-pyrrolo[2,3-b]pyridin-6-yl)cyclopropanecarboxamide]: in data set [1], the IC50 stood at 656 nM.

For `C[C@@H]1CN(C(=O)CC#N)CC=C1c1cc(NC(=O)C2CC2)nc2[nH]ccc12` [Example 3, (S)—N-(4-(1-(2-cyanoacetyl)-3-methyl-1,2,3,6-tetrahydropyridin-4-yl)-1H-pyrrolo[2,3-b]pyridin-6-yl)cyclopropanecarboxamide], the Individual related material in data set [2] (Initial) worked out at 0.08%; in data set [2] (Solid, Control), 0.07%; in data set [2] (Solid, UV (200 W-h/m2)), 0.1%; in data set [2] (Solid, UV + Vis), 0.08%; in data set [2] (Solid, UV + Vis Control), 0.08%; in data set [2] (Solid, Vis (1.2M Lux-h)), 0.07%. Moreover, the Total related material in data set [2] (Initial) came to 0.45%; in data set [2] (Solid, Control), 0.37%; in data set [2] (Solid, UV (200 W-h/m2)), 0.42%; in data set [2] (Solid, UV + Vis), 0.5%; in data set [2] (Solid, UV + Vis Control), 0.48%; in data set [2] (Solid, Vis (1.2M Lux-h)) it was 0.41%. In addition, in data set [3], the “Symptoms of atopic dermatitis” value was “ameliorates symptoms of atopic dermatitis”.

The record behind these values is US20240300943A1, “NOVEL SALTS OF HETEROCYCLIC COMPOUND AS PROTEIN KINASE INHIBITOR AND USES THEREOF” (HK INNO.N CORPORATION, priority 2021, published 2024).
